Reference: ChEMBL document CHEMBL6134905, “Double Swords in One: Novel Selective PI3K/110β PROTAC Degraders for the Treatment of Multidrug-Resistant Cancer by Activating ERS and Inhibiting P-gp” (J Med Chem, 2025)
Activity calls are given as the source filed them. No cut-off for these calls is given here.

Experiments:
[1] = target: T1, von Hippel-Lindau disease tumor suppressor/Phosphatidylinositol 4,5-bisphosphate 3-kinase catalytic subunit alpha isoform (Homo sapiens, UniProt P42336+P40337); test: PROTAC activity at PI3K-p110alpha/VHL in human MCF7/ADM cells assessed as reduction in PI3K-p110alpha level incubated for 24 hrs by Western blot analysis; format: cell-based; details: dose 0.04-50 µM
[2] = target: T2, von Hippel-Lindau disease tumor suppressor/Phosphatidylinositol 4,5-bisphosphate 3-kinase catalytic subunit beta isoform (Homo sapiens, UniProt P42338+P40337); test: PROTAC activity at PI3K-p110beta/VHL in human MCF7/ADM cells assessed as reduction in PI3K-p110beta mRNA level at 25 uM measured for 24 hrs by qRT-PCR analysis; format: cell-based
[3] = target: T1, von Hippel-Lindau disease tumor suppressor/Phosphatidylinositol 4,5-bisphosphate 3-kinase catalytic subunit alpha isoform; test: PROTAC activity at PI3K-p110alpha/VHL in human MCF7/ADM cells assessed as reduction in PI3K-p110alpha mRNA level at 25 uM measured for 24 hrs by qRT-PCR analysis; format: cell-based
[4] = Induction of apoptosis in human MCF7/ADM cells at 12.5 uM incubated for 24 hrs by Annexin V-FITC/PI staining based flow cytometry analysis (reference value: 5.20%); format: functional
[5] = Induction of apoptosis in human MCF7/ADM cells at 25 uM incubated for 24 hrs in presence of TUDCA by Annexin V-FITC/PI staining based flow cytometry analysis (reference value: 5.20%); format: functional
MCF7/ADM = test: Antitumor activity against human MCF7/ADM cells xenografted in BALB/c mouse assessed as reduction in tumor volume at 50 mg/kg, ip measured every 2 days in presence of Adriamycin; format: functional, organism-based; details: time 2.0 day
[6] = target: T2, von Hippel-Lindau disease tumor suppressor/Phosphatidylinositol 4,5-bisphosphate 3-kinase catalytic subunit beta isoform; test: PROTAC activity at PI3K-p110beta/VHL in human A549/DDP cells assessed as reduction in PI3K-p110beta level at 25 uM incubated for 24 hrs by Western blot analysis relative to control; format: cell-based; design: scale not given: the % may be the effect or the level left
A549/CDDP [7] = test: Induction of apoptosis in human A549/DDP cells at 6.25 uM incubated for 24 hrs by Annexin V-FITC/PI staining based flow cytometry analysis (reference value: 4.27%); format: functional
A549/CDDP [8] = test: Induction of apoptosis in human A549/DDP cells at 12.5 uM incubated for 24 hrs by Annexin V-FITC/PI staining based flow cytometry analysis (reference value: 4.27%); format: functional
A549/CDDP [9] = test: Induction of apoptosis in human A549/DDP cells at 25 uM incubated for 24 hrs by Annexin V-FITC/PI staining based flow cytometry analysis (reference value: 4.27%); format: functional
A549/CDDP [10] = test: Induction of apoptosis in human A549/DDP cells at 25 uM incubated for 24 hrs in presence of TUDCA by Annexin V-FITC/PI staining based flow cytometry analysis (reference value: 4.27%); format: functional

T2 sequence (P40337 whole entry, looked up, canonical isoform): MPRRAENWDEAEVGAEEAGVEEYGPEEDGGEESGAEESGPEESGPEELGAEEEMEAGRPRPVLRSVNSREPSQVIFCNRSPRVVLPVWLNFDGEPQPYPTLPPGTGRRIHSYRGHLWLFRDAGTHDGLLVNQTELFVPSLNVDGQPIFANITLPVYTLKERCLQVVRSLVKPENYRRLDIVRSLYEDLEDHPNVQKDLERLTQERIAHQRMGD
T2 sequence (P42338 whole entry, looked up, canonical isoform): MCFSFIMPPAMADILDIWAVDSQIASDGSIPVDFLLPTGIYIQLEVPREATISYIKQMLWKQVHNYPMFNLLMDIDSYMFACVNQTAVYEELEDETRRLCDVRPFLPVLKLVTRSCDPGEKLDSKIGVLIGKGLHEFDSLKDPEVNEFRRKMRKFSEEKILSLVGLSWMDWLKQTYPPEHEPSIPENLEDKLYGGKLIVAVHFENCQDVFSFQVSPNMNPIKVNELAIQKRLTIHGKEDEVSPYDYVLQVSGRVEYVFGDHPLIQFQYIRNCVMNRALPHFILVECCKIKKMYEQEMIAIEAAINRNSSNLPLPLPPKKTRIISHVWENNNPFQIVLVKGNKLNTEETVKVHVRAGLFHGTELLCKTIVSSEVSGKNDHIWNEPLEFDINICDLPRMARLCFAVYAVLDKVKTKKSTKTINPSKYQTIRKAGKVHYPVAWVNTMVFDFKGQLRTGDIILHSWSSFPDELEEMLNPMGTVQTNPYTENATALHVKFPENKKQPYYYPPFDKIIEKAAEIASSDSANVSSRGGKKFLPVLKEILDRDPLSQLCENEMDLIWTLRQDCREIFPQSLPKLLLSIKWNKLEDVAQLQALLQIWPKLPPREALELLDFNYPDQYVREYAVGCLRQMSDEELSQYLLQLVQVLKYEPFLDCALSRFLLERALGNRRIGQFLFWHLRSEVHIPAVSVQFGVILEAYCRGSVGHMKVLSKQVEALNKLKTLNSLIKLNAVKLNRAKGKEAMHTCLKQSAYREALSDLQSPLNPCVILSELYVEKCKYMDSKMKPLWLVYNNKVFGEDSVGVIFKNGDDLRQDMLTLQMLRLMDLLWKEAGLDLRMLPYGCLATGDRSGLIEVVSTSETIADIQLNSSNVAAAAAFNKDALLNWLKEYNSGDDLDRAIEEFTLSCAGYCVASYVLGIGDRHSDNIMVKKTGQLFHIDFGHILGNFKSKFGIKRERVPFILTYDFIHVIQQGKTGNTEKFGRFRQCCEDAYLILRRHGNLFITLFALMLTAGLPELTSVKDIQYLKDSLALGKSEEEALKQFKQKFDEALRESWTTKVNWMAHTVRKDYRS
T1 sequence (P40337 whole entry, looked up, canonical isoform): as the sequence (P40337 whole entry, looked up, canonical isoform) above
T1 sequence (P42336 whole entry, looked up, canonical isoform): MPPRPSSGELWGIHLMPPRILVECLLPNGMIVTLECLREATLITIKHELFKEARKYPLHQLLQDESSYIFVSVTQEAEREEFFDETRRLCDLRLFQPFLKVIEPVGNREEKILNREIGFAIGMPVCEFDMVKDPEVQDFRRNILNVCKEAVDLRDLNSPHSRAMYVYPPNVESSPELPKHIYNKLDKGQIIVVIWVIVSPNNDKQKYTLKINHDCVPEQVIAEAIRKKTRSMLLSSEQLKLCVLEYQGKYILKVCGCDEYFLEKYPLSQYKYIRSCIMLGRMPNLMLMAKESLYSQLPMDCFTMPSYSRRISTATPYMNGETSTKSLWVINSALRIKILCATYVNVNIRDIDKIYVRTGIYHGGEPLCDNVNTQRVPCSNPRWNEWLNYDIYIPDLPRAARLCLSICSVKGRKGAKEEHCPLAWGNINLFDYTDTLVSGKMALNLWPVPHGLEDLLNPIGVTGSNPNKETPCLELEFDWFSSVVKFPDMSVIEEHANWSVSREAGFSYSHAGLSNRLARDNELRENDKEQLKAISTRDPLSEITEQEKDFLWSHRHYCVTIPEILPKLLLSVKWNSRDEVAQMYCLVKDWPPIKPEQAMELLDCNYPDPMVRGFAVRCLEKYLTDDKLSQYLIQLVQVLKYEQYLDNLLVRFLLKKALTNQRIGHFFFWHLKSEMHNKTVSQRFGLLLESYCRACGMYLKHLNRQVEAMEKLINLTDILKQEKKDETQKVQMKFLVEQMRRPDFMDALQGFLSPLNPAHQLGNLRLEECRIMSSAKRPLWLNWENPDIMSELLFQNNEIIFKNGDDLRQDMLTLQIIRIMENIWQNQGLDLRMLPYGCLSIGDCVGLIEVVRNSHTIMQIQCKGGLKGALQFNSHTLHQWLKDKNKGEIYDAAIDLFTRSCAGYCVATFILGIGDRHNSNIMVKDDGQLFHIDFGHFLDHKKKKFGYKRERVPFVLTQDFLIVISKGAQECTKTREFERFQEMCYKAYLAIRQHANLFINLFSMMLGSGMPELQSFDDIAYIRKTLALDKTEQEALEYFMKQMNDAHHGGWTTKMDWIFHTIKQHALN

Structure (SMILES)	Activity [1]	Activity [2]	Activity [3]	Activity [4]	Activity [5]	Activity (MCF7/ADM)	Activity [6]	Activity (A549/CDDP [7])	Activity (A549/CDDP [8])	Activity (A549/CDDP [9])	Activity (A549/CDDP [10])
Cc1cc(C(C)Nc2ccccc2C(=O)NCCOCCOCCC(=O)N[C@H](C(=O)N2C[C@H](O)C[C@H]2C(=O)NCc2ccc(-c3scnc3C)cc2)C(C)(C)C)c2nc(N3CCOCC3)cc(=O)n2c1 (stereo partly specified)	Dose-dependent-effect	Active	Active	15.59%	21.59%	Active	–	–	–	–	–
Cc1cc(C(C)Nc2ccccc2C(=O)NCCCCCCC(=O)N[C@H](C(=O)N2C[C@H](O)C[C@H]2C(=O)NCc2ccc(-c3scnc3C)cc2)C(C)(C)C)c2nc(N3CCOCC3)cc(=O)n2c1 (stereo partly specified)	–	–	–	–	–	–	88%	8.73%	15.76%	23.83%	22.84%
